Patent US20220185811A1, “FGFR4 KINASE INHIBITOR AND PREPARATION METHOD THEREFOR AND USE THEREOF” (SHOUYAO HOLDINGS (BEIJING) CO., LTD., priority 2019, published 2022)
Where two headings read alike, the source gives them in different places.

Legend:
FGFR-4 kinase = FGFR-4 kinase (Homo sapiens, UniProt P22455); assay: FGFR-4 kinase activity, homogeneous time-resolved fluorescence (HTRF) method; type: biochemical; conditions: ATP 25 μM, FGFR-4 kinase 1 nM, read-out: FGFR4 IC50
Protocol: 1. In vitro determination of the protein activity of compounds: The FGFR-4 kinase activity detection platform was established by the homogeneous time-resolved fluorescence (HTRF) method, and the activity of the compound was determined. 1000 μM compounds were subjected to 3-fold gradient dilution in 100% DMSO 11 times (12 concentrations in total), 4 μL diluent from each concentration was added to 96 μL of reaction buffer (50 mM HEPES, pH 7.4, 5 mM MnCl2, 0.1 mM NaVO3, 0.001% Tween-20, 0.01% BAS, 1 mM DTT) and mixed well, as a 4* compound (final concentration of 0.017 nM-1000 nM) for later use. 2 * FGFR-4 kinase (final concentration of 1 nM) was formulated using reaction buffer and 4*substrate (ATP+TK peptide) (TK peptide, HTRF® KinEASETM-TK, purchased from Cisbio, TK peptide, final concentration of 1 μM, ATP final concentration of 25 μ M) was formulated using reaction buffer. 2.5 μL of 4*compound and then 5 μL of 2 * FGFR-4 kinase were added to a 384-well plate (OptiPlate-384, purchased from PerkinElmer), the mixture was mixed by centrifugation, and 2.5 μL of 4 * substrate mixture was added to start the reaction (total reaction volume of 10 µL). The 384-well plate was placed in an incubator 23° C. and stirred for 60 min before the reaction was stopped by the addition of 5 μL of Eu^3+cryptate-labeled anti-phosphotyrosine antibody (TRF® KinEASE™-TK, purchased from Cisbio) and 5 μL of Streptavidin-XL-665 (HTRF® KinEASE™-TK, purchased from Cisbio). After incubation in the incubator for 1 h, fluorescence values (excitation at 320 nm, detecting emitted light at 665 nm and 620 nm, and a ratio of the two as enzyme activity) were read on Envision (purchased from PerkinElmer). The enzyme activity of each compound was measured at 12 concentrations, and the ICso value of the compound was calculated using GraphPad Prism 5.0 software.
The FGFR-4 kinase activity detection platform was established by homogeneous time-resolved fluorescence (HTRF) method, and the activity of compound was determined. 1000 μM compounds were subjected to 3-fold gradient dilution in 100% DMSO 11 times (12 concentrations in total), 4 μL of diluent from each concentration was added to 96 μL of reaction buffer (50 mM HEPES, pH 7.4, 5 mM MnCl2, 0.1 mM NaVO3, 0.001% Tween-20, 0.01% BAS, 1 mM DTT) and mixed well, as a 4* compound (final concentration of 0.017 nM-1000 nM) for later use. 2 * FGFR-4 kinase (final concentration of 1 nM) was formulated using reaction buffer and 4*substrate (ATP+TK peptide)(TK peptide, HTRF® KinEASE™-TK, purchased from Cisbio, TK peptide, final concentration of 1 μM, ATP final concentration of 25 μM) was formulated using reaction buffer. 2.5 μL of 4 * compound and then 5 μL of 2 * FGFR-4 kinase were added to a 384-well plate (OptiPlate-384, purchased from PerkinElmer), the mixture was mixed by centrifugation, and 2.5 μL of 4 * substrate mixture was added to start the reaction (total reaction volume of 10 μL). The 384-well plate was placed in an incubator 23° C. and stirred for 60 min before the reaction was stopped by the addition of 5 μL of Eu^3+cryptate-labled anti-phosphotyrosine antibody (TRF® KinEASE™-TK, purchased from Cisbio) and 5 μL of Streptavidin-XL-665 (HTRF® KinEASE™-TK, purchased from Cisbio). After incubation in the incubator for 1 h, fluorescence values (excitation at 320 nm, detecting emitted light at 665 nm and 620 nm, and a ratio of the two as enzyme activity) were read on Envision (purchased from PerkinElmer). The enzyme activity of each compopund was measured at 12 concentrations, and the ICso value of the compound was calculated using GraphPad prism 5.0 software.

[1] = tested on: Human hepatoma cells Hep3b; assay: Cell proliferation inhibition, Cell Titer-Glo; type: cell-based; conditions: 72 h
Protocol: 2. Determination of cell proliferation activity of compounds:
Cell Titer-Glo ® detection reagent from Promega was used to establish the suspension cell proliferation inhibition screening method. Human hepatoma cells Hep3b (Xiehe Cell Research Center) were cultured in 25 cm^2 or 75 cm^2 plastic tissue culture flasks (Corning®) filled with MEM (Gibco®) medium supplemented with 10% fetal bovine serum (Hyclone®) under 37° C., 95% air and 5% CO2, and subcultured 2-3 times a week.
(§1) Hep3b cells were seeded in a 96-well cell culture plate (Corning®) at a density of 3×10^3 cells/well, […], and cultured under 37° C., 95% air, and 5% CO2. After 24 h the test compound was added: 10 mM compounds (dissolved in DMSO) were subjected to 3-fold gradient dilution in DMSO , […] of diluent from each concentration was added to […] of serum-free medium, and finally […] of compound diluted in the medium was added to the plate seeded with cells. The final concentration of DMSO in the cell culture medium was 0.1% and the final concentration of the test compound was 0.3 nM-[…]. The above cells were incubated for 3 days under 37° C.
After 3 days, the cell viability assay was performed by the Cell Titer-Glo (Promega) kit, and finally, the inhibitory concentration 50% of the compound on cell proliferation, i.e. the IC 50 value, was calculated by the GraphPad Prism 5.0 program.
as §1, with “DMSO,” for “DMSO ,”, “finally,” for “finally”, “of” for “of the”
After 3 days, the cell viability assay was performed by the Cell Titer-Glo (Promega) kit, and finally the inhibitory concentration 50% of the compound on cell proliferation, i.e. the IC 50 value, was calculated by the GraphPad Prism 5.0 program.

[2] = Hep3B, Table 1, 3 days incubation
[3] = Hep3B, Table 2, 3 days incubation

FGFR-4 kinase, sequence (P22455 22-802): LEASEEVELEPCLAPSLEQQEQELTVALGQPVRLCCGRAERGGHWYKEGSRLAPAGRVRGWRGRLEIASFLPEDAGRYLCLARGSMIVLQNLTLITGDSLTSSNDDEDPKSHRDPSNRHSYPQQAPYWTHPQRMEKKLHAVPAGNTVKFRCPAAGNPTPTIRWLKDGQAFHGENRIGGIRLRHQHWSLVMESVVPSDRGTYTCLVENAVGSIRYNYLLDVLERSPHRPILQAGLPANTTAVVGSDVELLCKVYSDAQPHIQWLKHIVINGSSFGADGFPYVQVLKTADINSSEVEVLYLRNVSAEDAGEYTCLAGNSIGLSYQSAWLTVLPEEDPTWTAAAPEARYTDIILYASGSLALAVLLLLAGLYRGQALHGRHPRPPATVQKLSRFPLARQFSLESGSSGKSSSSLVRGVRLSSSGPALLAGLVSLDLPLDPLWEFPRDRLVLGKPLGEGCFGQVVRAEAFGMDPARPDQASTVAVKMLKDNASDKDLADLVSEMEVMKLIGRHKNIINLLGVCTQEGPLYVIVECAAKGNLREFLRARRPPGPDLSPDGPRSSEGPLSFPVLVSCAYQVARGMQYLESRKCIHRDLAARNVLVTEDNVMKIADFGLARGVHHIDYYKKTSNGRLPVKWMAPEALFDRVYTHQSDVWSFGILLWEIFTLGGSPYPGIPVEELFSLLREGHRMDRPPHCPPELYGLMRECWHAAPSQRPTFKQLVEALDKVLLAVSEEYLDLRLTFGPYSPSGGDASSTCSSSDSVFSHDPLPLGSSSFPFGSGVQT

CC#CC(=O)Nc1cc(-c2cc3c(cn2)cc(-c2c(Cl)c(OC)cc(OC)c2Cl)c2nccn23)c(OC)cc1N1CCOCC1 [Example 29, N-(5-(4-(2,6-dichloro-3,5-dimethoxyphenyl)imidazo[1,2-a][1,6]naphthyridin-8-yl)-4-methoxy-2-morpholinophenyl)but-2-ynamide]
IC50 (FGFR-4 kinase; Table 1): 2.17 nM | IC50 [1, 2]: 34.4 nM

CC#CC(=O)Nc1cc(-c2cc3c(cn2)cc(-c2c(Cl)c(OC)cc(OC)c2Cl)c2nccn23)c(OC)cc1N1CCS(=O)(=O)CC1 [Example 30, N-(5-(4-(2,6-dichloro-3,5-dimethoxyphenyl)imidazo[1,2-a][1,6]naphthyridin-8-yl)-2-(1,1-dioxidothiomorpholino)-4-methoxyphenyl)but-2-ynamide]
IC50 (FGFR-4 kinase; Table 1): 0.947 nM | IC50 [1, 2]: 46.3 nM

CC#CC(=O)Nc1cc(-c2cc3c(cn2)cc(-c2c(Cl)c(OC)cc(OC)c2Cl)c2nccn23)c(OC)cc1N1CCC(N2CCOCC2)CC1 [Example 31, N-(5-(4-(2,6-dichloro-3,5-dimethoxyphenyl)imidazo[1,2-a][1,6]naphthyridin-8-yl)-4-methoxy-2-(4-morpholinopiperidin-1-yl)phenyl)but-2-ynamide]
IC50 (FGFR-4 kinase; Table 1): 3.63 nM | IC50 [1, 2]: 81.3 nM

CC#CC(=O)Nc1cc(-c2cc3c(cn2)cc(-c2c(Cl)c(OC)cc(OC)c2Cl)c2nccn23)c(OC)cc1N1CCN(C)C2(CC2)C1 [Example 32, N-(5-(4-(2,6-dichloro-3,5-dimethoxyphenyl)imidazo[1,2-a][1,6]naphthyridin-8-yl)-4-methoxy-2-(4-methyl-4,7-diazaspiro[2.5]octan-7-yl)phenyl)but-2-ynamide]
IC50 (FGFR-4 kinase; Table 1): 6.1 nM | IC50 [1, 2]: 76.8 nM

C=CC(=O)Nc1cc(-c2cc3c(cn2)cc(-c2c(Cl)c(OC)cc(OC)c2Cl)c2nccn23)c(OC)cc1N1CCN(C(C)=O)CC1 [Example 37, N-(2-(4-acetylpiperazin-1-yl)-5-(4-(2,6-dichloro-3,5-dimethoxyphenyl)imidazo[1,2-a][1,6]naphthyridin-8-yl)-4-methoxyphenyl)acrylamide]
IC50 (FGFR-4 kinase; Table 1): 2.16 nM | IC50 [1, 2]: 107 nM

C=CC(=O)Nc1cc(-c2cc3c(cn2)cc(-c2c(Cl)c(OC)cc(OC)c2Cl)c2nccn23)c(OC)cc1N1CC2CCC(C1)O2 [Example 44, N-(2-(8-oxa-3-azabicyclo[3 .2.1]octan-3-yl)-5-(4-(2,6-dichloro-3,5-dimethoxyphenyl)imidazo[1,2-a][1,6]naphthyridin-8-yl)-4-methoxyphenyl)acrylamide]
IC50 (FGFR-4 kinase; Table 1): 5.03 nM | IC50 [1, 2]: 113 nM

C=CC(=O)Nc1cc(-c2cc3c(cn2)cc(-c2c(Cl)c(OC)cc(OC)c2Cl)c2nccn23)c(OC)cc1N1CCOCC1 [Example 54, N-(5-(4-(2,6-dichloro-3,5-dimethoxyphenyl)imidazo[1,2-a][1,6]naphthyridin-8-yl)-4-methoxy-2-morpholinophenyl)acrylamide]
IC50 (FGFR-4 kinase; Table 2): 0.7 nM | IC50 ([1]; Table 2, 3 days incubation): 21.5 nM

C=CC(=O)Nc1cc(-c2cc3c(cn2)cc(-c2c(Cl)c(OC)cc(OC)c2Cl)c2nccn23)c(OC)cc1N1CCN(C#N)CC1 [Example 60, N-(2-(4-cyanopiperazin-1-yl)-5-(4-(2,6-dichloro-3,5-dimethoxyphenyl)imidazo[1,2-a][1,6]naphthyridin-8-yl)-4-methoxyphenyl)acrylamide]
IC50 (FGFR-4 kinase; Table 2): 0.9 nM | IC50 [1, 3]: 95.2 nM

C=CC(=O)Nc1cc(-c2cc3c(cn2)cc(-c2c(Cl)c(OC)cc(OC)c2Cl)c2nccn23)c(OC)cc1N1CCC(N2CCN(C)CC2)CC1 [Example 64, N-(5-(4-(2,6-dichloro-3,5-dimethoxyphenyl)imidazo[1,2-a][1,6]naphthyridin-8-yl)-4-methoxy-2-(4-(4-methylpiperazin-1-yl)piperidin-1-yl)phenyl)acrylamide]
IC50 (FGFR-4 kinase; Table 2): 0.3 nM | IC50 [1, 3]: 69.7 nM

C=CC(=O)Nc1cc(-c2cc3c(cn2)cc(-c2c(Cl)c(OC)cc(OC)c2Cl)c2nccn23)c(OC)cc1N1CCN(C2COC2)CC1 [Example 65, N-(5-(4-(2,6-dichloro-3,5-dimethoxyphenyl)imidazo[1,2-a][1,6]naphthyridin-8-yl)-4-methoxy-2-(4-(oxetan-3-yl)piperazin-1-yl)phenyl)acrylamide]
IC50 (FGFR-4 kinase; Table 2): 0.9 nM | IC50 [1, 3]: 22.3 nM

C=CC(=O)Nc1cc(-c2cc3c(cn2)cc(-c2c(Cl)c(OC)cc(OC)c2Cl)c2nccn23)c(OC)cc1N1CCC(N(C)C)CC1 [Example 67]
IC50 (FGFR-4 kinase; Table 2): 0.4 nM | IC50 [1, 3]: 81.3 nM
